{"source": "paper PMC4579270", "about": "“Identification and Characterization of an Irreversible Inhibitor of CDK2” (Chemistry & Biology, 2015)", "assay_in_all_cases": "Dundee protein kinase screen", "format_in_all_cases": "biochemical", "key": {"MSK1": {"target": "MSK1 (Homo sapiens, UniProt O75582)", "sequence (O75582 whole entry)": "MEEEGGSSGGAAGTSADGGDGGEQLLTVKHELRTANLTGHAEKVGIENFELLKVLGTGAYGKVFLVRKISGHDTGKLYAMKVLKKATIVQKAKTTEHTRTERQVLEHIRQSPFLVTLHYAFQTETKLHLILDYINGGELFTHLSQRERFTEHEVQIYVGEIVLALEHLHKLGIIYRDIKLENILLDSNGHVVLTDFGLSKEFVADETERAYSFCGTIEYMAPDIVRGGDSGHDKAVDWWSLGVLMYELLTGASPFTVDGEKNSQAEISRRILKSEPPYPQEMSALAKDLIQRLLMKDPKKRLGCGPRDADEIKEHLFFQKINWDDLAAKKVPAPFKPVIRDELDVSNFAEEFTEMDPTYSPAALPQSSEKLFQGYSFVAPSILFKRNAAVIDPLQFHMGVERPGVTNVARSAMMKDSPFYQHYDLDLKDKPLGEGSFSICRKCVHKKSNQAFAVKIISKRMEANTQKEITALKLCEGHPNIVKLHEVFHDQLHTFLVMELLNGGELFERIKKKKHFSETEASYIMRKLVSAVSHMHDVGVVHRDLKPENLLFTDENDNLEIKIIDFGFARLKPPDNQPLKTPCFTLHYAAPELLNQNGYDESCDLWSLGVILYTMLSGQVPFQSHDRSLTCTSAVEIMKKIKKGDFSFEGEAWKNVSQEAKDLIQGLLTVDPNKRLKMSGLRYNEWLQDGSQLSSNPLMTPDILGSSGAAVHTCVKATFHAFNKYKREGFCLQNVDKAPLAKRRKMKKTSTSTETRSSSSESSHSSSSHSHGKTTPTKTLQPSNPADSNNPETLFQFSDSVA", "conditions": "MSK1, 1µM; read-out: %Remaining activity at 1µM NU6300", "protocol": "(§1) Prior to determining its cellular activity, we carried out a screen to assess its selectivity against a panel of 131 protein kinases under conditions that would not distinguish between a reversible or irreversible mode of action. […] These 13 kinases and 29 additional kinases, selected for their known sensitivity to other inhibitors within the purine series, were then tested in a modified screening format in which the assay was repeated following a 4-hr pre-incubation (Table S3B). […] However, conformational flexibility around the active site may promote such an interaction with a residue from another part of the structure ([Martin et al., 2012]).\n(§2) Table S3, Related to Figure 4. NCL-0006300 protein kinase selectivity. (A) NU6300 was tested at a single concentration of 1µM against 131 protein kinases present in a Dundee protein kinase screen (Bain et al., 2007). Values given are % activity remaining and are the average of duplicate measurements: 0-25% (red), 26-50% (yellow), 51-80% […]\n(§3) (black) and above 81% (green). […]"}, "TLK1": {"target": "TLK1 (Homo sapiens, UniProt Q9UKI8)", "sequence (Q9UKI8 whole entry)": "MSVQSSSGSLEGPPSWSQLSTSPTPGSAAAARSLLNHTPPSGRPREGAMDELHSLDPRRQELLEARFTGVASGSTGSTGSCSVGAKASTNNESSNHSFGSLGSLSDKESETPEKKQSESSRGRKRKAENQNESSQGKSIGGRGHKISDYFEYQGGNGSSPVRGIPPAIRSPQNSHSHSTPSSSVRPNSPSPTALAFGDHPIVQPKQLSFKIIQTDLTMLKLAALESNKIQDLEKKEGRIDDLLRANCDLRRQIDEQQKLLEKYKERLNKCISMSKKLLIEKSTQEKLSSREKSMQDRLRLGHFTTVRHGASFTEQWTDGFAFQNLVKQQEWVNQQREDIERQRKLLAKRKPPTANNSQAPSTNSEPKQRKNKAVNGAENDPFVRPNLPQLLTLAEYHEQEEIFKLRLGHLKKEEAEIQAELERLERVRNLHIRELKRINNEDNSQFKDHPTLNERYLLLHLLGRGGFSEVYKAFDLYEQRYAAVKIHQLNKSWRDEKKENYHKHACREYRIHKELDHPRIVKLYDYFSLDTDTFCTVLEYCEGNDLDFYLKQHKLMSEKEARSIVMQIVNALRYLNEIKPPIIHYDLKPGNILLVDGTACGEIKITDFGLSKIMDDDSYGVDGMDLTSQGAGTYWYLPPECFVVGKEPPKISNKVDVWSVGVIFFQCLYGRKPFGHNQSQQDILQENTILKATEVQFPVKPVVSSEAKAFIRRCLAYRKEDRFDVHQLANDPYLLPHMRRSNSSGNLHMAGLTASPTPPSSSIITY", "conditions": "TLK1, 1µM; read-out: %Remaining activity at 1µM NU6300", "protocol": "as §1, §2, §3"}, "TTK": {"target": "T1, TTK (Homo sapiens, UniProt P33981)", "T1 sequence (P33981 1-857)": "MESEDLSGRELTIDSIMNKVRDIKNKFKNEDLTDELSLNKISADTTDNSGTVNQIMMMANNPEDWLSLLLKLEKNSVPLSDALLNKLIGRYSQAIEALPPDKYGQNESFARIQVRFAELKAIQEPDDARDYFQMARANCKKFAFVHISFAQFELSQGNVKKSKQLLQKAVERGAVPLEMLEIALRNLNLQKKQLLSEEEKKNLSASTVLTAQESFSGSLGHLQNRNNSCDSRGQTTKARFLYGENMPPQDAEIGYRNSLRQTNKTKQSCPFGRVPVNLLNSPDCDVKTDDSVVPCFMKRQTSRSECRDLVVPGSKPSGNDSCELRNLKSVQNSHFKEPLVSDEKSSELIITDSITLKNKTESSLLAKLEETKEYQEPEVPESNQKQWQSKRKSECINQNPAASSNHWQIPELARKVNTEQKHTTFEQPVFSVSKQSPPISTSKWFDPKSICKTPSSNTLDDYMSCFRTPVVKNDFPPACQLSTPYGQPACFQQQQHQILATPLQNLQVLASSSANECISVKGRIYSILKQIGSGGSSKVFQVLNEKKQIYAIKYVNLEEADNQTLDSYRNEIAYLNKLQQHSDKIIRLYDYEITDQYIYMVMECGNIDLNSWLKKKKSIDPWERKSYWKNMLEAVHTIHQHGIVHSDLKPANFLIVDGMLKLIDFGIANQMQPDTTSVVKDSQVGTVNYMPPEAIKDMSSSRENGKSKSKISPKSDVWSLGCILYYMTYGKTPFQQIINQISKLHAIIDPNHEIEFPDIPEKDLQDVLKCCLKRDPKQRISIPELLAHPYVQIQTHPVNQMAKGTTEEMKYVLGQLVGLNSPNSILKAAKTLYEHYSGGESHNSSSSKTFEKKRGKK", "conditions": "read-out: %Remaining activity at 1µM NU6300", "protocol": "as §1, §2, §3"}, "PDK1": {"target": "T2, PDK1 (Homo sapiens, UniProt O15530)", "T2 sequence (O15530 1-556)": "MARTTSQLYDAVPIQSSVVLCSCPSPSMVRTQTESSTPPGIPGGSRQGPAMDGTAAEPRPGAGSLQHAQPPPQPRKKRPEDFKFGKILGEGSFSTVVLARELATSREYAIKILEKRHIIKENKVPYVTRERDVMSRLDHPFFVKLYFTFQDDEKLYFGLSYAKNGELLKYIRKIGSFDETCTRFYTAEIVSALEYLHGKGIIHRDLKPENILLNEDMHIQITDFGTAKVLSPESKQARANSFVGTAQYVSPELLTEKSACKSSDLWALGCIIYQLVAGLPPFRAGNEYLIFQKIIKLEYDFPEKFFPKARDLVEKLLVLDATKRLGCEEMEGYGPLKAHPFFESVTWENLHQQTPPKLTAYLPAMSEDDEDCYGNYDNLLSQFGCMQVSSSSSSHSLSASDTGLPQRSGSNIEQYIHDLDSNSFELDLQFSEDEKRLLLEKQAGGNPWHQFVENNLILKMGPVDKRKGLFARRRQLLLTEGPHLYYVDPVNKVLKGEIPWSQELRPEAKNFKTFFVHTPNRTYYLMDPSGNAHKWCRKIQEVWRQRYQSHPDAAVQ", "conditions": "PDK1, 1µM; read-out: %Remaining activity at 1µM NU6300", "protocol": "as §1, §2, §3"}, "p38β MAPK": {"target": "p38β MAPK (Homo sapiens, UniProt Q15759)", "sequence (Q15759 whole entry)": "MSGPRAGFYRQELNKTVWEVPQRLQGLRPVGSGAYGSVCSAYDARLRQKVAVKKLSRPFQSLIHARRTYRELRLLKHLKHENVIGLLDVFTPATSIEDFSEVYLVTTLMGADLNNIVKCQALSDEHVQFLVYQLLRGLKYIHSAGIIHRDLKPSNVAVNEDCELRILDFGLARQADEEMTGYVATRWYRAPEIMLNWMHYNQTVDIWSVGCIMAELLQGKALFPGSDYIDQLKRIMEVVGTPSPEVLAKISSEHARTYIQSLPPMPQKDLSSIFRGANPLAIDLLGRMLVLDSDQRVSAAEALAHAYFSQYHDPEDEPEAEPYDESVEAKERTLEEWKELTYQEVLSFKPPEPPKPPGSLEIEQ", "conditions": "read-out: %Remaining activity at 1µM NU6300", "protocol": "as §1, §2, §3"}, "TBK1": {"target": "T3, TBK1 (Homo sapiens, UniProt Q9UHD2)", "T3 sequence (Q9UHD2 1-729)": "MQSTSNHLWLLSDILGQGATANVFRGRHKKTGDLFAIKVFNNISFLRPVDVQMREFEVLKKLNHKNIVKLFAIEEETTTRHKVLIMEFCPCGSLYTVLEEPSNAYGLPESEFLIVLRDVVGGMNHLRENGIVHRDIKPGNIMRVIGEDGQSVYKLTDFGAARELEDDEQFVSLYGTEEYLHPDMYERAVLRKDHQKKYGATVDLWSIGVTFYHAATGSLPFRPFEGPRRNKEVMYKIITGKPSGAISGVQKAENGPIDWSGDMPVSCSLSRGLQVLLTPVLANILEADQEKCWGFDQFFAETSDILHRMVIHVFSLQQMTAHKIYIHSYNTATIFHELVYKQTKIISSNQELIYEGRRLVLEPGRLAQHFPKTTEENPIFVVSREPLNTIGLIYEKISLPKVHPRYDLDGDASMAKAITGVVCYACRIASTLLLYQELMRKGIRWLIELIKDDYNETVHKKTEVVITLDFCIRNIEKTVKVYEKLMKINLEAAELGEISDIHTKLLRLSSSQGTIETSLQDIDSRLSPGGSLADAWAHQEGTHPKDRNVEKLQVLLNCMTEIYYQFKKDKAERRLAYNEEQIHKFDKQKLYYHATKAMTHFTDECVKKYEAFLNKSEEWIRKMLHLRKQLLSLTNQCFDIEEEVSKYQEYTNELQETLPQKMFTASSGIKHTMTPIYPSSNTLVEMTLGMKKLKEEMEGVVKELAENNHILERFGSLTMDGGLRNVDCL", "conditions": "TBK1, 1µM; read-out: %Remaining activity at 1µM NU6300", "protocol": "as §1, §2, §3"}, "OSR1": {"target": "OSR1 (Homo sapiens, UniProt O95747)", "sequence (O95747 whole entry)": "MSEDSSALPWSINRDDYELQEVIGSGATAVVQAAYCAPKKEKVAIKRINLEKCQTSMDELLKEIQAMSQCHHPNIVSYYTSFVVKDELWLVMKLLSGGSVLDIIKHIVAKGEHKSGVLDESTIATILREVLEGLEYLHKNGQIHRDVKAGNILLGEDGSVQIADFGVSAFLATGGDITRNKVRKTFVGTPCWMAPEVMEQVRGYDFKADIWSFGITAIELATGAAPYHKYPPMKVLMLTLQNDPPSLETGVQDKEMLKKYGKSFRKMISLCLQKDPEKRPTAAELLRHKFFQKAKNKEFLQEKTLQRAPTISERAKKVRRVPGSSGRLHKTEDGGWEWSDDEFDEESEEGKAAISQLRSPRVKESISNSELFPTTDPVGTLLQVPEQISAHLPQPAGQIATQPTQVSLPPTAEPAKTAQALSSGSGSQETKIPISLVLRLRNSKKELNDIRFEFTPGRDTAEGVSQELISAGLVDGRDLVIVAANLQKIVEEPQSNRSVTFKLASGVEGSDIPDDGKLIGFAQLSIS", "conditions": "OSR1, 1µM; read-out: %Remaining activity at 1µM NU6300", "protocol": "as §1, §2, §3"}, "Src": {"target": "Src (Homo sapiens, UniProt P12931)", "sequence (P12931 whole entry)": "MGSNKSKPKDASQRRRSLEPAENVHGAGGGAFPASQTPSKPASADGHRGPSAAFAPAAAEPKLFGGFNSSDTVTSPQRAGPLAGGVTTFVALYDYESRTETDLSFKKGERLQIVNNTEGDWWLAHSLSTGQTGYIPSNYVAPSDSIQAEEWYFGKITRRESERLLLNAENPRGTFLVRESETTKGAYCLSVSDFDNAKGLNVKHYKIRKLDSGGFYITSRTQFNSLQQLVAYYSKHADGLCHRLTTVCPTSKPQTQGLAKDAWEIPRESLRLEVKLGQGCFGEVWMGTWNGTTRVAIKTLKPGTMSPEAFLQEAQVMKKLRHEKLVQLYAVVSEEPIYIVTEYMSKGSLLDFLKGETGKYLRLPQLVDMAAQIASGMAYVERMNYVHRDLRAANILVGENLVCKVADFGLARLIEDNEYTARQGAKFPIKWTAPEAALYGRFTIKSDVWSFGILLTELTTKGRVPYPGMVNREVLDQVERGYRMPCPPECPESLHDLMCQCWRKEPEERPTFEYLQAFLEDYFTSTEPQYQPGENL", "conditions": "read-out: %Remaining activity at 1µM NU6300", "protocol": "as §1, §2, §3"}}, "data": [{"smiles": "C=CS(=O)(=O)c1ccc(Nc2nc(OCC3CCCCC3)c3nc[nH]c3n2)cc1", "note": "[NU6300, 6-(cyclohexylmethoxy)-N-(4-(vinylsulfonyl)phenyl)-9H-purin-2-amine]", "values": [{"measurement": "remaining activity at 1 µM", "setting": "MSK1", "result": 69, "unit": "%"}, {"measurement": "remaining activity at 1 µM", "setting": "TLK1", "result": 52, "unit": "%"}, {"measurement": "remaining activity at 1 µM", "setting": "TTK", "result": 29, "unit": "%"}, {"measurement": "remaining activity at 1 µM", "setting": "PDK1", "result": 29, "unit": "%"}, {"measurement": "remaining activity at 1 µM", "setting": "p38β MAPK", "result": 67, "unit": "%"}, {"measurement": "remaining activity at 1 µM", "setting": "TBK1", "result": 45, "unit": "%"}, {"measurement": "remaining activity at 1 µM", "setting": "OSR1", "result": 67, "unit": "%"}, {"measurement": "remaining activity at 1 µM", "setting": "Src", "result": 39, "unit": "%"}]}]}
